Measurements as given in PMC11637875, “Discovery of novel PARP1/NRP1 dual-targeting inhibitors with strong antitumor potency” (Frontiers in Pharmacology, 2024).
Where two headings read alike, the source gives them in different places.

Legend:
NRP1 [1] = target: T1, NRP1 (Homo sapiens, UniProt O14786); experiment: In vitro NRP1 inhibition assay (125I-VEGF-A binding displacement, NRP1-transfected HUVEC cells); settings: 125I-VEGF-A165 binding competition, 2 h, 4°C
T1 construct: expressed in transfected cells; host or cells: HUVEC, adenovirus NRP1
Method: The method was performed as described previously ([Jarvis et al., 2010]). Radiolabeled binding displacement experiments were performed as described previously ([Jia et al., 2006]). Confluent adenovirus NRP1-transfected HUVEC cells in 96-well plates were washed twice with PBS. At 4°C various concentrations of compounds diluted in binding medium (Dulbecco’s modified Eagle’s medium, 25 mM HEPES, pH 7.3, containing 0.1% BSA) were added, followed by addition of the indicated concentration of ^125I-VEGF-A (1,200–1800 Ci/mmol, GE Healthcare, United Kingdom). After 2 h of incubation at 4°C, the medium was aspirated, and washed four times with cold phosphate-buffered saline. The cells were lysed with 0.25 M NaOH, 0.5% SDS solution, and the bound radioactivity of the lysates was measured. IC50 values were calculated from the competition curves of the compounds in the ^125I-VEGF-A165 binding assay using GraphPad Prism 9 software. Using log(inhibitors) vs response-Variable slope equation in the GraphPad Prism 9 to fit the curves. The equation was as follows: (Top and Bottom are the responses, respectively, at the top and bottom of the curve, Y is the inhibitory response at a given compound concentration X, and the Hillslope describes the steepness of the curve.) Y=Bottom+Top−Bottom/1+10^logIC50−xHillslope
T1 sequence (O14786 22-923): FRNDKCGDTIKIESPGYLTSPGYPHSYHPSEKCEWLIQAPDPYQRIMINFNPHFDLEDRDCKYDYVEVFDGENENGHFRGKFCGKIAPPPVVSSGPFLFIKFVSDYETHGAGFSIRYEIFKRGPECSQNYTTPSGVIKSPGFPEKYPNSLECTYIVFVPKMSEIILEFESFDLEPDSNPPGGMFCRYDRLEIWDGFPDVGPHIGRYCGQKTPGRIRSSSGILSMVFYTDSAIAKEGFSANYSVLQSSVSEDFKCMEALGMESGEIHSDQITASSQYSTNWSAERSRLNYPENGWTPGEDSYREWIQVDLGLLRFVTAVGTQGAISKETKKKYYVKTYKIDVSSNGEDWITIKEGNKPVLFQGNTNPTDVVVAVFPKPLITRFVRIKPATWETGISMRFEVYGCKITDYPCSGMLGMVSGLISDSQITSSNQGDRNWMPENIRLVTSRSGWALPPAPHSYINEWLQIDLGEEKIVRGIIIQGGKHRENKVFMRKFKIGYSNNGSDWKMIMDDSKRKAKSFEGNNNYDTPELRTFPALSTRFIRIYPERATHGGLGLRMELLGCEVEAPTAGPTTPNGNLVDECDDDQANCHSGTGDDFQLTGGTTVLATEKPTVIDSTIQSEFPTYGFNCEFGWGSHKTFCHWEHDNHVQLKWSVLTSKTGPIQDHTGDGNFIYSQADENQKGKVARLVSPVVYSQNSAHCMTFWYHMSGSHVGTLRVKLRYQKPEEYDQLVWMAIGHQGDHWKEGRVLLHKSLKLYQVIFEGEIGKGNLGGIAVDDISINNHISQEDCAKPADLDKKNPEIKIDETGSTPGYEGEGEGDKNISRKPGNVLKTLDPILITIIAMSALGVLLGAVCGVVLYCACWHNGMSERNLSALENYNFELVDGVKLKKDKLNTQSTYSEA

NRP1 [2] = target: T2, NRP1 (Homo sapiens, UniProt O14786); experiment: Microscale thermophoresis (MST) assay; assay type: binding; settings: labeled protein 50 nM; for Kd: read-out: NRP1 (K d)
T2 construct: purchased Abcam
T2 sequence (O14786 22-644 isoform O14786-2 limits assumed): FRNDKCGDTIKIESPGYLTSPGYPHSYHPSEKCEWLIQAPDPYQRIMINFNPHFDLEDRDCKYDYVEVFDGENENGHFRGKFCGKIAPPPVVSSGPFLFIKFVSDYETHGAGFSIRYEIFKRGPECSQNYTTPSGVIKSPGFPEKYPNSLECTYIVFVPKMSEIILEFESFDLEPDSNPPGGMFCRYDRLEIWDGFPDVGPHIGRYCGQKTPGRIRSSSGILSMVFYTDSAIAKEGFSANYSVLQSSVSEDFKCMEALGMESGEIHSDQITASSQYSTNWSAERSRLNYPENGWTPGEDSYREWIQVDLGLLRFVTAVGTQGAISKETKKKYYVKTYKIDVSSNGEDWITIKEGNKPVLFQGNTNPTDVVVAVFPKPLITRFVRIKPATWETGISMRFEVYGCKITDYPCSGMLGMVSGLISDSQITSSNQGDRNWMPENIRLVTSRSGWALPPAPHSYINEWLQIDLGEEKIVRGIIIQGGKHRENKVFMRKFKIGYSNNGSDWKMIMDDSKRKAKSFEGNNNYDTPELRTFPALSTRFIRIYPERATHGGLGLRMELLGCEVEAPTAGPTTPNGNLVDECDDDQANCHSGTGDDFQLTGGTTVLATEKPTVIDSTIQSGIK
Method: (§1) All samples were diluted in 1 × PBST. […] Affinity Analysis software.

PARP1 [3] = target: T3, PARP1 (Homo sapiens, UniProt P09874); experiment: Microscale thermophoresis (MST) assay; assay type: binding; settings: labeled protein 50 nM; for Kd: read-out: PARP1 (K d)
T3 construct: purchased Abcam
Method: as §1

PARP1 [4] = target: T3, PARP1; experiment: In vitro PARP1 inhibition assay (chemiluminescence); assay type: biochemical; settings: PARP1 enzyme 0.6 units/well
Method: In each well, 50 μL of 1 × PARP1 buffer was added and incubated for 30 min at room temperature. The 1 × PARP1 buffer was removed from the wells, and then 25 μL of 1 × PARP1 cocktail was added to each well along with varying doses of compounds and PARP1 enzyme (0.6 units/well). Incubated and washed twice with PBS and 0.1% Triton X-100. Then added 50 μL Strep-HRP and washed twice. Equal volumes (100 μL) of PeroxyGlow A and B were added to each well and immediately take chemiluminescent readings. Data were analyzed by GraphPad Prism 9 software based on chemiluminescence readings of chemiluminescent substrates of Strep-HRP in each well. The IC50 value was were calculated by nonlinear curve fitting in GraphPad Prism 9.

MDA-MB-231 cells = experiment: In vitro antiproliferation assay (MTT); assay type: cell-based; settings: Homo sapiens
Method: Cell viability was measured by MTT assays. […] Afterward, the medium was removed. MTT (5 mg/mL) was dissolved in phosphate-buffered saline (PBS) and filter-sterilized, and then, 20 μL of the prepared MTT solution was added to each well, and the cells were incubated for another 4 h until a purple precipitate was visible. The supernatant was removed by centrifugation, and DMSO (150 μL/well) was added to dissolve the insoluble crystals. The absorbance was determined using an enzyme-linked immunosorbent assay reader at a test wavelength of 570 nm. The assays were performed three times in a parallel manner. The non-linear regression was used to plot a Dose-Response-Inhibition to determine the value of the IC50. […] The data were analyzed using GraphPad Prism 9 software.

[5] = system: MDA-MB-231 xenograft tumor; experiment: In vivo antitumor assay; set-up: species or system BALB/c nude mice; settings: 5 mg/kg intraperitoneally every 3 days, n = 6
Method: Twenty-four female BALB/c nude mice (body weight 16–20 g) at 4–6 weeks old were purchased from Changzhou Cavens Experimental Animal Limited Company (Changzhou, China). Mice were adaptively housed for 1 week in a specific pathogen-free (SPF) environment with a temperature of 25°C ± 2°C, a 12-hour light/dark cycle, and free access to food and water. MDA-MB-231 breast cancer cells (200 μL, 1×10^7 cells) were suspended in PBS to formulate cell suspension, and 0.1 mL of cells were injected into the axilla of the left forelimb of mice by subcutaneous injection. […] Equal concentrations of drug-free PBS buffer were used for the vehicle group. Each group was administered every 3 days and the body weight and tumor size of the mice were recorded. Mice were executed when the tumor volume approached 2000 mm^3. Tumor volumes of all mice were measured using vernier calipers. The mice were placed belly up and the longest diameter of the tumor was measured with the inner bayonet of a vernier caliper, and the shortest transverse diameter perpendicular to the diameter was measured with the inner bayonet of a vernier caliper and recorded. Tumor volume was estimated according to the following formula: (c × c × d)/2 (c, the smallest diameter; d, the largest diameter). All animal experiments were performed and approved by the Ethics Committee of China Pharmaceutical University.

[6] = 168 h, MDA-MB-231, concentration needed to reduce cell growth by 50% following 7 days cell treatment, read-out: IC50

T3 sequence (P09874 whole entry): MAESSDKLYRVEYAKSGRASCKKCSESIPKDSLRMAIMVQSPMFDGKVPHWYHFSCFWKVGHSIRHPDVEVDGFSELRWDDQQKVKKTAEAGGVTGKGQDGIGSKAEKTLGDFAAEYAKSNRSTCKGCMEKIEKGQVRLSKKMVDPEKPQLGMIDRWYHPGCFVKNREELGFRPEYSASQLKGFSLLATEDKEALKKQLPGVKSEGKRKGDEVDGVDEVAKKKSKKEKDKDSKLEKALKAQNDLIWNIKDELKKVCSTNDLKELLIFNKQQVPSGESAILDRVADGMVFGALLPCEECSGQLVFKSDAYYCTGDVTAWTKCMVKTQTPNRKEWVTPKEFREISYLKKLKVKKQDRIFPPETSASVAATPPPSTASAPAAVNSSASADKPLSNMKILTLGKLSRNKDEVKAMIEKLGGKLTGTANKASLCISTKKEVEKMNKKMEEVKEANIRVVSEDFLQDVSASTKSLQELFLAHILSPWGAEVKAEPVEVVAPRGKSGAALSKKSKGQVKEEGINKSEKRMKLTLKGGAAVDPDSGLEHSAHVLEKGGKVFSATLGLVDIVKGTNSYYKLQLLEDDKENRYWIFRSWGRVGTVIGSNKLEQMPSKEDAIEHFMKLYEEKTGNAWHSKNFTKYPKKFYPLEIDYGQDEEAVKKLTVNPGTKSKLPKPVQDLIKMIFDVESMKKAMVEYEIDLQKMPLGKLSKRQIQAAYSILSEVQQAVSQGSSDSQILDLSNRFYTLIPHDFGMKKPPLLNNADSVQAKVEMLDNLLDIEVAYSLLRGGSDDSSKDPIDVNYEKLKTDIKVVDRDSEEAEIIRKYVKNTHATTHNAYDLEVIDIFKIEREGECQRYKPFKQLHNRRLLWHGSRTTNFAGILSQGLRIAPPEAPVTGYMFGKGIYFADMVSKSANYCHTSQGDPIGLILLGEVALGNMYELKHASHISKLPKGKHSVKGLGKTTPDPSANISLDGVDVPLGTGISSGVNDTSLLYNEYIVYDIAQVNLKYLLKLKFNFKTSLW

Row | SMILES | IC50 (NRP1 [1]) [nM] | Kd (NRP1 [2]) [nM] | PARP1 (K d, nM) (PARP1 [3]) | PARP1 (IC50, nM) (PARP1 [4]) | IC50 (MDA-MB-231 cells; [6]) [nM] | body weight (g) in mice, mean ([5]; day 0) [g] | tumor volume (mm^3), mean ([5]; day 0) [mm^3] | body weight (g) in mice, mean ([5]; day 3) [g] | tumor volume (mm^3), mean ([5]; day 3) [mm^3] | body weight (g) in mice, mean ([5]; day 6) [g] | tumor volume (mm^3), mean ([5]; day 6) [mm^3] | body weight (g) in mice, mean ([5]; day 9) [g] | tumor volume (mm^3), mean ([5]; day 9) [mm^3] | body weight (g) in mice, mean ([5]; day 12) [g] | tumor volume (mm^3), mean ([5]; day 12) [mm^3] | NRP1 (IC50, nM) (NRP1 [1]) | NRP1 (K d, nM) (NRP1 [2]) | IC50 (MDA-MB-231 cells; MDA-MB-231, 168 h) [nM] | Kd (PARP1 [3]) [nM] | IC50 (PARP1 [4]) [nM]
1 | NC(N)=NCCC[C@H](NC(=O)c1sccc1NS(=O)(=O)c1cccc2nsnc12)C(=O)O [EG00229] | 640 ± 34.7 | 519 | no binding | No inhibition | 62400 | 18.38 | 101 | 18.51 | 275 | 18.84 | 502 | 19.19 | 976 | 19.52 | 1352 |  |  |  |  | 
2 | O=C(c1cc(Cc2n[nH]c(=O)c3ccccc23)ccc1F)N1CCN(C(=O)C2CC2)CC1 [Olaparib, olaparib] |  |  |  |  |  | 18.29 | 103 | 18.55 | 245 | 19.12 | 329 | 19.37 | 513 | 19.59 | 733 | No inhibition | no binding | 960 |  | 
3 | NC(N)=NCCC[C@H](NCNCCNC(=O)c1cc(Cc2n[nH]c(=O)c3ccccc23)ccc1F)C(=O)O [PPNR-1] | 94.1 ± 4.24 | 91.5 |  |  | 890 |  |  |  |  |  |  |  |  |  |  |  |  |  | 75.1 | 70.3 ± 3.13
4 | NC(N)=NCCC[C@H](NCN1CCCN(C(=O)c2cc(Cc3n[nH]c(=O)c4ccccc34)ccc2F)C1)C(=O)O [PPNR-2] | 31.2 ± 3.95 | 31 |  |  | 560 |  |  |  |  |  |  |  |  |  |  |  |  |  | 28.4 | 29.3 ± 2.57
5 | NC(N)=NCCC[C@H](NC/C=C/CNC(=O)c1cc(Cc2n[nH]c(=O)c3ccccc23)ccc1F)C(=O)O [PPNR-3] | 72.9 ± 3.41 | 71.3 |  |  | 830 |  |  |  |  |  |  |  |  |  |  |  |  |  | 61.1 | 63.2 ± 4.02
6 | CN(CCNC(=O)c1cc(Cc2n[nH]c(=O)c3ccccc23)ccc1F)CN[C@@H](CCCN=C(N)N)C(=O)O [PPNR-5] | 57.1 ± 3.27 | 55.3 |  |  | 720 |  |  |  |  |  |  |  |  |  |  |  |  |  | 40 | 41.4 ± 2.86
